Data from patent US11965039B2, “Compstatin analogues and their medical uses” (priority 2018, dated 2024).
Where two headings read alike, the source gives them in different places. Starred links: 1 amine or outer side, 2 acyl side, 3 side chain; linkers in the order of their positions; H or OH if unused. Positions of bridges follow the written chain, without caps; N, C: chain ends. Non-standard residues stand in square brackets, D forms with d. Residues, ends and D or L forms follow the SMILES beside them. Groups on a side chain read outwards from the residue. *: point of attachment. Trp(1-Me) = Cn1cc(C[C@H](N)C(=O)O)c2ccccc21; C18 diacid = O=C(O)CCCCCCCCCCCCCCCCC(=O)*; C16 diacid = O=C(O)CCCCCCCCCCCCCCC(=O)*; γGlu = O=C(O)[C@H](CCC(=O)[*:2])N[*:1]; NMeI = CC[C@H](C)[C@H](NC)C(=O)O; AEEA = NCCOCCOCC(=O)O; Sar = CNCC(=O)O

Legend:
[1] = system: classical complement pathway; assay: In vitro haemolysis assay (inhibition of classical complement pathway); format: cell-based, human
Description: The in vitro effect of the compounds of the present invention was assessed by measuring their inhibitory effect of the classical complement pathway in a haemolysis assay. Briefly, compounds of the present invention and reference compounds were dissolved in DMSO and diluted in Tris/Casein Assay Buffer (10 mM Tris, 145 mM NaCl, 0.5 mM MgCl2, 0.15 mM CaCl2), and 0.1% W/V Casein, adjusted to pH 7.4) as 9-point serial dilutions in a 96 well plate. Sensitized sheep red blood cells (RBC) coated with rabbit anti-sheep erythrocyte antiserum (Complement Technology, Inc., TX, USA) were washed in Tris/Casein Assay Buffer. […] from each well of diluted compound was added to a 96-well plate containing 50 μL diluted human serum (Complement Technology, Inc., TX, USA) and incubated for 15 minutes at room temperature. The serum dilution factor was optimized for every serum batch to obtain 70-90% of maximal haemolysis using the protocol. Then 50 μL sensitized sheep red blood cells were added to all wells (10^7 per well). After 30 minutes of incubation at 37 QC with gentle agitation, the reaction was stopped by addition of 50 μL Tris STOP Buffer per well (10 mM EDTA, 10 mM Tris, 145 mM NaCl adjusted to pH 7.4). The RBCs were then removed by centrifugation and the resulting supernatant measured for hemolysis by absorbance at 405 nm. The response was normalized relative to a positive and negative control (vehicle) to calculate the IC50 from the concentration response curve using the 4-parameter logistic (4PL) nonlinear model for curve fitting.

[2] = Solubility test at 10 mg/mL (visual inspection and light scattering); format: physicochemical; conditions: for Solubility, Condition 1: Acetate pH 4; for Solubility, Condition 2: Acetate pH 5; for Solubility, Condition 3: Phosphate pH 6; for Solubility, Condition 4: Phosphate pH 7; for Solubility, Condition 5: Phosphate pH 7.5
Description: The solubility of compounds was assessed by measuring light scattering over a pH interval from pH 4 to pH 7.5.
Compounds were dissolved in a stock solution of 20 mg/mL in H2O at pH 2.5 or pH 10. These stock solutions were diluted 1:1 with 200 mM buffered solution to reach a final solution of 10 mg/mL compound in 100 mM buffer. The 5 investigated conditions were (1) acetate pH 4.0, (2) acetate pH 5.0, (3) phosphate pH 6.0, (4) phosphate pH 7 and (5) phosphate pH 7.5.
Visual inspection included manually checking the 96 well plate for wells that are clear or non-clear. In addition to this a picture of the 96 well plate is taken.
Absorbance was measured at four wavelengths: 280 nm, 325 nm, 340 nm and 360 nm in an UV transparent 96 well microplate in a SpectraMax 190 microplate reader (Molecular Devices).
The criteria for this was a combination of visual inspection and light scattering not exceeding 0.1 AU, where values below 0.1 AU are good in visually clear samples.

[3] = human serum, sensitized sheep red blood cells, Table 3, given as upper bounds, read-out: IC50, inhibition of hemolysis
[4] = human serum, sensitized sheep red blood cells, Table 4, valine 3 vs isoleucine 3 pairs, read-out: CP hemolysis IC50

CC[C@H](C)[C@H](NC(=O)[C@H](C)NC(=O)[C@H](CO)NC(=O)CNC(=O)[C@H](CCCCNC(=O)COCCOCCNC(=O)COCCOCCNC(=O)CC[C@H](NC(=O)CCCCCCCCCCCCCCC(=O)O)C(=O)O)NC(C)=O)C(=O)N[C@H]1CSSC[C@@H](C(=O)N[C@H](C(=O)N[C@@H](CCC(=O)O)C(=O)NCC(=O)N[C@@H](CCC(=O)O)C(N)=O)[C@@H](C)O)NC(=O)[C@H](CCCNC(=N)N)NC(=O)[C@H](Cc2c[nH]cn2)NC(=O)[C@H](CCC(=O)O)NC(=O)CNC(=O)[C@H](Cc2c[nH]c3ccccc23)NC(=O)[C@H](CC(=O)O)NC(=O)[C@H](CCC(N)=O)NC(=O)[C@H](Cc2c[nH]c3ccccc23)NC(=O)[C@H]([C@@H](C)CC)NC1=O [Compound 100] (Ac-K([AEEA-AEEA-γGlu-C16 diacid])GSAICIWQDWGEHRCTEGE-NH2; disulfide 6-16)
IC50 [1, 3]: < 500 nM

CC[C@H](C)[C@H](NC(C)=O)C(=O)N[C@H]1CSSC[C@@H](C(=O)N[C@H](C(N)=O)[C@@H](C)O)NC(=O)[C@H](CCCNC(=N)N)NC(=O)[C@H](Cc2c[nH]cn2)NC(=O)[C@H](CCC(=O)O)NC(=O)CNC(=O)[C@H](Cc2c[nH]c3ccccc23)NC(=O)[C@H](CC(=O)O)NC(=O)[C@H](CCC(N)=O)NC(=O)[C@H](Cc2c[nH]c3ccccc23)NC(=O)[C@H](C(C)C)NC1=O [A, reference compound] (Ac-ICVWQDWGEHRCT-NH2; disulfide 2-12)
IC50 ([1]; Table 5, different residues at position 3 of Ac-IC(1)XWQDWGEHRC(1)T-NH2, read-out: IC50, CP hemolysis): 350 nM | IC50 [1, 4]: 350 nM

CC[C@H](C)[C@@H]1NC(=O)[C@@H](NC(=O)[C@H](Cc2ccc(O)cc2)NC(=O)[C@H](CCC(=O)O)NC(=O)[C@H](CO)NC(C)=O)CSSC[C@@H](C(=O)N(C)CC(=O)N[C@@H](CCC(=O)O)C(=O)NCC(=O)N[C@@H](CCC(=O)O)C(=O)NCCOCCOCC(=O)NCCOCCOCC(=O)N[C@@H](CCCCNC(=O)CC[C@H](NC(=O)CNC(=O)CC[C@H](NC(=O)CCCCCCCCCCCCCCCCC(=O)O)C(=O)O)C(=O)O)C(N)=O)NC(=O)[C@H](CCCNC(=N)N)NC(=O)[C@H](Cc2c[nH]cn2)NC(=O)[C@H](CCC(=O)O)NC(=O)CNC(=O)[C@H](Cc2c[nH]c3ccccc23)NC(=O)[C@H](CCC(=O)O)NC(=O)[C@H](CCC(N)=O)NC(=O)[C@H](Cc2cn(C)c3ccccc23)NC1=O [Compound 125] (Ac-SEYCI[Trp(1-Me)]QEWGEHRC[Sar]EGE[AEEA][AEEA]K([γGlu-Gly-γGlu-C18 diacid])-NH2; disulfide 4-14)
IC50 [1, 3]: < 500 nM

CC[C@H](C)[C@H](NC(=O)[C@H](N)Cc1ccc(O)cc1)C(=O)N[C@H]1CSSC[C@@H](C(=O)N(C)[C@H](C(N)=O)[C@@H](C)CC)NC(=O)[C@H](CCCNC(=N)N)NC(=O)[C@H](Cc2c[nH]cn2)NC(=O)[C@H](C)NC(=O)CN(C)C(=O)[C@H](Cc2c[nH]c3ccccc23)NC(=O)[C@H](CC(=O)O)NC(=O)[C@H](CCC(N)=O)NC(=O)[C@H](Cc2cn(C)c3ccccc23)NC(=O)[C@H]([C@@H](C)CC)NC1=O [Compound 48, H-{d}YIC(1)I[1-Me-Trp]QDW[Sar]AHRC(1)[N-Me-Ile]-NH2] (H-[dY]ICI[Trp(1-Me)]QDW[Sar]AHRC[NMeI]-NH2; disulfide 3-13)
IC50 [1, 3]: < 100 nM

CC[C@H](C)[C@H](NC(C)=O)C(=O)N[C@H]1CSSC[C@@H](C(=O)N[C@@H](CO)C(N)=O)NC(=O)[C@H](CCCNC(=N)N)NC(=O)[C@H](Cc2c[nH]cn2)NC(=O)[C@H](CCC(=O)O)NC(=O)CNC(=O)[C@H](Cc2c[nH]c3ccccc23)NC(=O)[C@H](CC(=O)O)NC(=O)[C@H](CCC(N)=O)NC(=O)[C@H](Cc2c[nH]c3ccccc23)NC(=O)[C@H](C(C)C)NC1=O [G, reference compound] (Ac-ICVWQDWGEHRCS-NH2; disulfide 2-12)
IC50 [1, 4]: 180 nM

CC[C@H](C)[C@@H]1NC(=O)[C@@H](NC(=O)[C@H](Cc2ccc(O)cc2)NC(=O)[C@H](CCC(=O)O)NC(=O)[C@H](CO)NC(C)=O)CSSC[C@@H](C(=O)N(C)CC(=O)N[C@@H](CCC(=O)O)C(=O)NCC(=O)N[C@@H](CCC(=O)O)C(=O)N[C@@H](CCCCNC(=O)CC[C@H](NC(=O)[C@H](CCCCN)NC(=O)CC[C@H](NC(=O)CCCCCCCCCCCCCCCCC(=O)O)C(=O)O)C(=O)O)C(N)=O)NC(=O)[C@H](CCCNC(=N)N)NC(=O)[C@H](Cc2c[nH]cn2)NC(=O)[C@H](CCC(=O)O)NC(=O)CNC(=O)[C@H](Cc2c[nH]c3ccccc23)NC(=O)[C@H](CC(=O)O)NC(=O)[C@H](CCC(N)=O)NC(=O)[C@H](Cc2cn(C)c3ccccc23)NC1=O [Compound 116] (Ac-SEYCI[Trp(1-Me)]QDWGEHRC[Sar]EGEK([γGlu-Lys-γGlu-C18 diacid])-NH2; disulfide 4-14)
Solubility, Condition 1 [2]: − (“−” denotes lack of solubility at the given condition, as UV absorbance at 340 nm exceeds 0.1 AU and/or it is visibly turbid or contains particles) | Solubility, Condition 2 [2]: − (“−” denotes lack of solubility at the given condition, as UV absorbance at 340 nm exceeds 0.1 AU and/or it is visibly turbid or contains particles) | Solubility, Condition 3 [2]: + (“+” denotes solubility at the given condition, as determined by UV absorbance being less than 0.1 AU at 340 nm and the sample being clear when manually inspected) | Solubility, Condition 4 [2]: + (“+” denotes solubility at the given condition, as determined by UV absorbance being less than 0.1 AU at 340 nm and the sample being clear when manually inspected) | Solubility, Condition 5 [2]: + (“+” denotes solubility at the given condition, as determined by UV absorbance being less than 0.1 AU at 340 nm and the sample being clear when manually inspected)

CC[C@H](C)[C@@H]1NC(=O)[C@@H](NC(=O)[C@H](Cc2ccc(O)cc2)NC(=O)[C@H](C)NC(=O)[C@H](CO)NC(C)=O)CSSC[C@@H](C(=O)N(C)CC(=O)N[C@@H](CCC(=O)O)C(=O)N[C@@H](CCCCNC(=O)CC[C@H](NC(=O)CNC(=O)[C@H](CCCCN)NC(=O)CC[C@H](NC(=O)CCCCCCCCCCCCCCCCC(=O)O)C(=O)O)C(=O)O)C(N)=O)NC(=O)[C@H](CCCNC(=N)N)NC(=O)[C@H](Cc2c[nH]cn2)NC(=O)[C@H](CCC(=O)O)NC(=O)CNC(=O)[C@H](Cc2c[nH]c3ccccc23)NC(=O)[C@H](CC(=O)O)NC(=O)[C@H](CCC(N)=O)NC(=O)[C@H](Cc2cn(C)c3ccccc23)NC1=O [Compound 105] (Ac-SAYCI[Trp(1-Me)]QDWGEHRC[Sar]EK([γGlu-Gly-Lys-γGlu-C18 diacid])-NH2; disulfide 4-14)
Solubility, Condition 1 [2]: − (“−” denotes lack of solubility at the given condition, as UV absorbance at 340 nm exceeds 0.1 AU and/or it is visibly turbid or contains particles) | Solubility, Condition 2 [2]: − (“−” denotes lack of solubility at the given condition, as UV absorbance at 340 nm exceeds 0.1 AU and/or it is visibly turbid or contains particles) | Solubility, Condition 3 [2]: + (“+” denotes solubility at the given condition, as determined by UV absorbance being less than 0.1 AU at 340 nm and the sample being clear when manually inspected) | Solubility, Condition 4 [2]: + (“+” denotes solubility at the given condition, as determined by UV absorbance being less than 0.1 AU at 340 nm and the sample being clear when manually inspected) | Solubility, Condition 5 [2]: + (“+” denotes solubility at the given condition, as determined by UV absorbance being less than 0.1 AU at 340 nm and the sample being clear when manually inspected)
